Test results: patent publication US20260216359A1, “CYCLIC PEPTIDE-BASED LYSOSOME TARGETING DEGRADERS” (Wisconsin Alumni Research Foundation, priority 2023, published 2026)

Legend:
EGFR = test: inhibition of Ctx-PEG12-cRGD-induced EGFR degradation in MCF7 cells, western blot; type: cell-based; settings: BAF1 50 nM, CQ 10 uM, in the presence of 10 nM Ctx-PEG12-cRGD for 6h
Description: MCF7 cells were seeded at 70% confluence in a 24-well plate and incubated in 350 μL complete culture media overnight. Cells were pre-treated with free excess cRGD-azide with concentrations indicated in the figure at 4° C. for 1 h before incubating with 10 nm Ctx-PEG12-cRGD for 8 h. Cells were then harvested for western blot.
MCF7 cells were seeded at 70% confluence in a 24-well plate and incubated in 350 μL complete culture media overnight. Cells were treated with lysosomal degradation inhibitor Bafilomycin A1 (BAF1) at 50 nM and Chloroquine (CQ) at 10 uM in the presence of 10 nM Ctx-PEG12-cRGD for 6h.

α5β1 = α5β1 (Homo sapiens, UniProt P05556+P08648); settings: Kapp et al., 2017; one range given for αvβ5, αvβ6, α5β1; cited from earlier work
α5β1, sequence (P08648 42-894 limits assumed): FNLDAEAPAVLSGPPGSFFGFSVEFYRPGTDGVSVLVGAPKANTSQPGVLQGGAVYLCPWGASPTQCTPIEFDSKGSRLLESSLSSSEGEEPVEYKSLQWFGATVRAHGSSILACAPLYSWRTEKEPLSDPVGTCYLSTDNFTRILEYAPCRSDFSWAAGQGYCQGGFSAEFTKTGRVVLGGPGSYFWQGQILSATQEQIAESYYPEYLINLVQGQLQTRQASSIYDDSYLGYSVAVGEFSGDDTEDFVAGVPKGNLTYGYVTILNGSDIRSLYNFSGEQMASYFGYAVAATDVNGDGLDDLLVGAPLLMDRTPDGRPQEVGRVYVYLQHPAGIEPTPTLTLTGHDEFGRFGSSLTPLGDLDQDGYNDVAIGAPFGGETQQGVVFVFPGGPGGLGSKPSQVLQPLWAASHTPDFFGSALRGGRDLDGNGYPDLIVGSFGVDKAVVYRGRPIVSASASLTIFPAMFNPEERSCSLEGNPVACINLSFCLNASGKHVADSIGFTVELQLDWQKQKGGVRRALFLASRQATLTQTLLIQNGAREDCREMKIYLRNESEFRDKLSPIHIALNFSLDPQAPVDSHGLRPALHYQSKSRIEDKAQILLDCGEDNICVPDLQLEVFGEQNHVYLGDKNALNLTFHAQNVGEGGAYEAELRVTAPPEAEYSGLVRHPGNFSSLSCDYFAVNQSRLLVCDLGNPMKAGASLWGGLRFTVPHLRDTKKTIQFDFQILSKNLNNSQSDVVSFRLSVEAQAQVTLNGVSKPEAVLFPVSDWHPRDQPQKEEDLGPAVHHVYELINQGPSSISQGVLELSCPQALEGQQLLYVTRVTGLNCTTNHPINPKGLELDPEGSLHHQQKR
α5β1, sequence (P08648 895-995 partner limits assumed): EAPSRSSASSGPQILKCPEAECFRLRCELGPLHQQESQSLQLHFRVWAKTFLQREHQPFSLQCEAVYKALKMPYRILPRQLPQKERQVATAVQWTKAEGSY
α5β1, sequence (P05556 21-728 limits assumed): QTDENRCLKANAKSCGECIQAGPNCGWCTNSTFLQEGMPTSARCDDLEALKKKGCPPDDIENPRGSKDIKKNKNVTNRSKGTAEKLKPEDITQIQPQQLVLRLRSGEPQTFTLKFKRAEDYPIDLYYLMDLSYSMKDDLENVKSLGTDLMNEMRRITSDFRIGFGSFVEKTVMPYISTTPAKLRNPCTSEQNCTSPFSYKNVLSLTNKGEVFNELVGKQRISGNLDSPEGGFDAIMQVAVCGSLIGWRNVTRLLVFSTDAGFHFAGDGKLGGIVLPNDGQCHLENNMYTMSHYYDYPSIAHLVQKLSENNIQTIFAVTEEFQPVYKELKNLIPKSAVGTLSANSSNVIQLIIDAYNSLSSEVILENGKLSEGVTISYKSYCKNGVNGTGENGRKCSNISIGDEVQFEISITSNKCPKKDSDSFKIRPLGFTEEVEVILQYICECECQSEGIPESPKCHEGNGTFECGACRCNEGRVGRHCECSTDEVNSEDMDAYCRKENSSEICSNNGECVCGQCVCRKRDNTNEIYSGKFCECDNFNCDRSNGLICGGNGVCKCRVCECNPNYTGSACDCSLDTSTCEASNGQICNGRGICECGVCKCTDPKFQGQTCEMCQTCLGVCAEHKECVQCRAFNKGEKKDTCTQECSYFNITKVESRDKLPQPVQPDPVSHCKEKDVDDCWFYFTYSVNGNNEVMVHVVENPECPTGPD

anti-biotin-647 = test: lysosomal degradation of anti-biotin-647 in MCF7 cells, in gel fluorescence; type: cell-based; settings: 25 nM Ab-cRGD and 50 nM anti-biotin-647 for 3 h, then 50 nM BAF1 for 3 h
Description: MCF7 cells were seeded in a 48-well plate at 70% confluence and maintained in 200 μL complete culture media. Next day, cells were incubated with 25 nM of Ab-cRGD and 50 nM of anti-biotin-647 for 3 h followed by three washes with PBS. Cells were then maintained in fresh media with or without 50 nM Bafilomycin A1 (BAF1) for another 3 h before harvested for in gel fluorescence analysis.

Compound | inhibition of EGFR degradation by lysosomal degradation inhibitors (FIG. 16) (EGFR) | binding to α5β1 (α5β1) | inhibition of lysosomal degradation of anti-biotin-647 (FIG. 14) (anti-biotin-647)
CCN(CC)CCCC(C)Nc1ccnc2cc(Cl)ccc12 (stereo not shown) [Chloroquine] | inhibition of EGFR degradation |  | 
cyclo(Arg-Gly-Asp-D-Phe-Lys) [cRGD] |  | 50 to 350 nM | 
CO/C1=C\C(C)=C\[C@@H](C)[C@@H](O)[C@@H](C)C/C(C)=C/C=C/[C@H](OC)[C@@H]([C@@H](C)[C@@H](O)[C@H](C)[C@@]2(O)C[C@@H](O)[C@H](C)[C@@H](C(C)C)O2)OC1=O [Bafilomycin A1] | inhibition of EGFR degradation |  | inhibition of lysosomal degradation of anti-biotin-647
